Data set [1] has as its target SARS-CoV-2 spike RBD-ACE2 interaction (Homo sapiens, UniProt Q9BYF1). Description: biochemical. Type of data set: binding. The note with it: for IC50: IC50 Biosensor.
For data set [2], the target named is RBD of SARS-CoV (2002)-ACE2 interaction (Homo sapiens, UniProt Q9BYF1). As to the kind of experiment: biochemical. Type of data set: binding.
Another data set relates to LATS biosensor. Type of data set: binding. To be noted: 4 μM.
The next data set deals with wild-type nanoluciferase (Oplophorus gracilirostris, UniProt Q9GV45, A31E/A60N/A81I/F95D/I117V/K70R/L54V/L99Q/M102K/N193R/P142E/Q151K/Q38R/Q45L/V71I/Y165I). Type of data set: biochemical. The note with it: 4 μM.
The test system of data set [3] is SARS-CoV-2-Spike pseudotyped vesicular stomatitis virus (VSV-GFP-Spike). Type of data set: cell-based.
Another data set deals with COVID-19. The note with it: cited from earlier work.
Data set [4] has as its target S1 domain of SARS-CoV-2 spike-ACE2 interaction (Homo sapiens, UniProt Q9BYF1). Type of data set: binding.
The subject of another data set is wild-type VSV-GFP. Type of data set: cell-based.
Data set [5] deals with fusion between spike and ACE2 (HEK293T cells). Type of data set: cell-based.
A further data set has as its target recombinant sACE2 (Homo sapiens, UniProt Q9BYF1). Type of data set: binding.
Data set [6] deals with SARS-CoV-2 (strain 291.3 FR-4286). Type of data set: cell-based.
Another data set concerns SARS-CoV-2. Type of data set: cell-based.
For data set [7], the system named is SARS-CoV-2 VOCs (Alpha, Beta, Delta, cluster5). Type of data set: cell-based.
The test system of the next data set is VSV-Spike (strain 2). The note with it: mouse, in vivo.
The test system of data set [8] is SARS-CoV-2 (FR-4286 strain). On the set-up: species or system K18-hACE2 mice. To be noted: mouse, in vivo.
The next data set deals with Recombinant ACE2 (Homo sapiens, UniProt Q9BYF1).
For data set [9] the following is noted: mouse, in vivo.
The conditions of data set [10]: in vivo, 0.016 mg/kg; cited from earlier work.
For data set [11] the following is noted: rabbit, in vivo; cited from earlier work.
The mark [12] stands for this setting: method B, newly purchased drugs, 2–25 μM, Figure 2D.
Where [13] appears, read: read-out: inhibition of bioreporter signal, SARS-CoV RBD/ACE2, both methods.
[14] abbreviates: Prestwick library screen, 4 μM, compound added to LgBiT-RBD, then SmBiT-ACE2.
[15] abbreviates: Prestwick library screen, 4 μM, compound added to pre-formed RBD:ACE2 complex.

The term IC50 denotes the concentration that gives 50% inhibition.

Several values for one entry are separate records, joined by “and”; a condition that tells them apart may be missing. Equal values may be shown once. Where a name gives a salt, the structure may show the parent alone. Read-outs that look alike come from different tables or passages of the source.

RBD of SARS-CoV (2002)-ACE2 interaction, sequence (Q9BYF1 18-740 limits assumed): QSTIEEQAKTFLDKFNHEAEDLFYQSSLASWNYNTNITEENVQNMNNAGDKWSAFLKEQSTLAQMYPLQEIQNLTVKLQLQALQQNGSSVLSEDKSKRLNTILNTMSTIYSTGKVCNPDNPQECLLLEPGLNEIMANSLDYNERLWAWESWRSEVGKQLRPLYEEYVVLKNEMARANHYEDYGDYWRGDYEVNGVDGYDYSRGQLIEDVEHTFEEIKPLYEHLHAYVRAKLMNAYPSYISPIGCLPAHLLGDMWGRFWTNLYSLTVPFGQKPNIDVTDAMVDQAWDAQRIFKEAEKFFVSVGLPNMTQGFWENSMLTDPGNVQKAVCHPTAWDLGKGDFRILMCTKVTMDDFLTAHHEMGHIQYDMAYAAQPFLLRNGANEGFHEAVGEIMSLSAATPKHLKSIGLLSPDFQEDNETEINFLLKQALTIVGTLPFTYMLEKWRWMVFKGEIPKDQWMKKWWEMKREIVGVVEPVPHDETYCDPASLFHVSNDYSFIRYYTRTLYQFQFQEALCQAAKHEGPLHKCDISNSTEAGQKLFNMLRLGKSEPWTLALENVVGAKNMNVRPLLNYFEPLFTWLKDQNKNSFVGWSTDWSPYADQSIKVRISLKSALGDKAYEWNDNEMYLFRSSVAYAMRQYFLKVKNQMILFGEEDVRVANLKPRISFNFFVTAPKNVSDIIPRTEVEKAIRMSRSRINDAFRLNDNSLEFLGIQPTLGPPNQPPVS
SARS-CoV-2 spike RBD-ACE2 interaction, sequence (Q9BYF1 18-740): as the sequence (Q9BYF1 18-740 limits assumed) above
S1 domain of SARS-CoV-2 spike-ACE2 interaction, sequence (Q9BYF1 18-740): as the sequence (Q9BYF1 18-740 limits assumed) above
recombinant sACE2, sequence (Q9BYF1 19-607): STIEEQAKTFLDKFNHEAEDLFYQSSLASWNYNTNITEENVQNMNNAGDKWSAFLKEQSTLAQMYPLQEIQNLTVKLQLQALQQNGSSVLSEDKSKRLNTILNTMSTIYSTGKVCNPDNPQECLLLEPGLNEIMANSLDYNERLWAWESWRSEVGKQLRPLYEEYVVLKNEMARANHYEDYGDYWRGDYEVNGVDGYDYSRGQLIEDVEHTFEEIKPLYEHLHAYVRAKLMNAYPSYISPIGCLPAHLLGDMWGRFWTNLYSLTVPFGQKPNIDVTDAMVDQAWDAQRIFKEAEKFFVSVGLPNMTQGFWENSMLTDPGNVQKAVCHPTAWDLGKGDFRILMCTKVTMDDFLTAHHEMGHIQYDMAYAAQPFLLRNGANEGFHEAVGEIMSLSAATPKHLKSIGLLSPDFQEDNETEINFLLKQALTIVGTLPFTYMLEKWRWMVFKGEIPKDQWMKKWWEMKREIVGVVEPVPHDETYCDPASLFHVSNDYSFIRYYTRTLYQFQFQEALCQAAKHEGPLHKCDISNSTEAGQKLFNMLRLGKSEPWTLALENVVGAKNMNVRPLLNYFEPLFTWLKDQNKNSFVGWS
Recombinant ACE2, sequence (Q9BYF1 18-805): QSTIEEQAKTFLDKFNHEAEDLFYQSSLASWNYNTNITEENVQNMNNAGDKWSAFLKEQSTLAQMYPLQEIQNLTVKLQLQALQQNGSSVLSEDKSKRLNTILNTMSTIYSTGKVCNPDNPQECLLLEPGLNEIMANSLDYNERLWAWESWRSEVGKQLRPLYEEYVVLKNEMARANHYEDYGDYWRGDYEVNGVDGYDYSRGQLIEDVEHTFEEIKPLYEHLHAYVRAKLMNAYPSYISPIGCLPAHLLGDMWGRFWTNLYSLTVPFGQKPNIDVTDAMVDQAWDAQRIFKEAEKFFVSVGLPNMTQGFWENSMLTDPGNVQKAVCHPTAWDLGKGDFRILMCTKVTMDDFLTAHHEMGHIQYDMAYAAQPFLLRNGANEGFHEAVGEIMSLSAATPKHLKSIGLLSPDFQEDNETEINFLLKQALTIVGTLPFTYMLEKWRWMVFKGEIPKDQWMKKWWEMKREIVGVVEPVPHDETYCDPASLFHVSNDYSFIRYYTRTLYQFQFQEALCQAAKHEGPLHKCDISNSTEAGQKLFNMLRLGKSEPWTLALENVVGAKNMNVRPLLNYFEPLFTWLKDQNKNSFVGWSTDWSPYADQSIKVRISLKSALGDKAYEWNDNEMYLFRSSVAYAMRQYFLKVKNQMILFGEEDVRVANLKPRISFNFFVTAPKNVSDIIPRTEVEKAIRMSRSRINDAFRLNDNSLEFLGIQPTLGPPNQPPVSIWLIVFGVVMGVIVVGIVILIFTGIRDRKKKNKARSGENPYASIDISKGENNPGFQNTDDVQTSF

`COC(=O)C1=C(C)NC(C)=C(C(=O)OCCN(C)Cc2ccccc2)C1c1cccc([N+](=O)[O-])c1` (stereo not drawn) [nicardipine, nicardipine HCl]: the IC50 in [1] (setting [12]) came out at 1900 nM. In addition, the inhibition at 4 µM in data set [2] (setting [13]) was in the range of 3 to 6%.
In the case of `Clc1ccc(COC(Cn2ccnc2)c2ccc(Cl)cc2Cl)cc1` (stereo not drawn) [econazole nitrate, econazole nitrate salt], in data set [1] (setting [14]), the “reduction in bioreporter signal, method B” value was −23%. Also, the “reduction in bioreporter signal, method A” value (shortened to “reduction … method A”) in [1] (setting [15]) is reported as −36%.
On the same counts, the results for `CCOC1O[C@H]([C@@H](COCc2ccccc2)OCc2ccccc2)[C@H](OCc2ccccc2)[C@H]1O` (stereo partly drawn) [tribenoside] are −9% and −21%.
Turning to `COc1cc(N)c(Cl)cc1C(=O)NC1CCN(CCCOc2ccc(F)cc2)CC1OC` (stereo not drawn) [cisapride], 16500 nM corresponded to half-maximal inhibition in data set [1] (setting [12]) (IC50). The “reduction in luminescence with the LATS biosensor” value in the data set with LATS biosensor was −13%. Also, the “reduction in luminescence with nanoluciferase on its own” value at wild-type nanoluciferase is given as “not nanoluciferase on its own”. Besides, the “effect on VSV infection” value in [3] is recorded as “did not affect VSV infection at all concentrations tested”. The “toxic at doses of more than” value in the data set on VeroE6 and VeroAT cells (VeroE6 / VeroAT, 48 h) is on record as “more than 20 μM”.
`C#C[C@]1(O)CC[C@H]2[C@@H]3CCc4cc(O)ccc4[C@H]3CC[C@@]21C` [ethynylestradiol, 17a-ethynylestradiol]: in data set [1] (setting [12]), the midpoint of inhibition, the IC50, lay at 2600 nM. For the same compound, the inhibition at 4 µM in data set [2] (setting [13]) was in the range of 3 to 6%.
For `CCC(C)n1ncn(-c2ccc(N3CCN(c4ccc(OCC5COC(Cn6cncn6)(c6ccc(Cl)cc6Cl)O5)cc4)CC3)cc2)c1=O` (stereo not drawn) [itraconazole], in the data set with COVID-19 (administered orally, clinical study), the “efficacy in hospitalized individuals” value is recorded as “no efficacy”.
With `CC(C)C(=O)OC[C@H]1O[C@@H](n2ccc(NO)nc2=O)[C@H](O)[C@@H]1O` [Molnupiravir], the “reduction of hospitalization or death” value with COVID-19 (oral treatment, clinical) is given as 50%.
Regarding `Clc1ccccc1C(c1ccccc1)(c1ccccc1)n1ccnc1` [clotrimazole], the “reduction … method A” value in [1] (setting [15]) is given as −21%.
In the case of `CC(=O)N1CCN(c2ccc(OCC3COC(Cn4ccnc4)(c4ccc(Cl)cc4Cl)O3)cc2)CC1` (stereo not drawn) [ketoconazole], inhibition in data set [1] (method B, imidazole comparison, Figure 3B) was half-maximal at 14500 nM (IC50). The “reduction … method A” value in [1] (setting [15]) is listed as −29%. Besides, the “concentration giving spike-specific reduction in viral growth” value in data set [3] is around 80 µM.
Consider `c1ccc(-c2ccc(C(c3ccccc3)n3ccnc3)cc2)cc1` (stereo not drawn) [bifonazole], for which, in data set [1], the “bioreporter complementation, pre-treatment of ACE2 followed by RBD” value was “complete abrogation of bioreporter complementation and luminescence”; the “concentration inhibiting WT ACE2 binding to the RBD to similar levels as αRBD” value came to 3.29 µM; the “reduction … method A” value is given as −46%; the “reduction in bioreporter signal, method B” value is given as −51%. In addition, the IC50 in [1] was 1300 nM and 1600 nM. Besides, in data set [1] (read-out: peak inhibition, pre-treatment of RBD followed by ACE2), the inhibition at 4 µM worked out at 50%. Further, the inhibition at 3.29 µM in data set [1] (read-out: signal inhibition) came to 80%. Further, in data set [4], the “reduction in binding, ACE2 and S1 domain of spike” value is around 30%. Also, in data set [2] (read-out: inhibition of luminescence, SARS-CoV RBD/ACE2, method A), the inhibition at 4 µM came out at 45%. Besides, the inhibition at 4 µM in [2] (read-out: inhibition of luminescence, SARS-CoV RBD/ACE2, method B) amounted to 22%. Also, in [3], the VSV-Spike plaque size entry is “reduction in VSV-Spike plaque size”; the “concentration giving spike-specific reduction in viral growth” value is around 35 µM; the “immunofluorescent VSV staining, spike-pseudotyped VSV strains” value is listed as “complete abrogation of VSV staining”; the “viral entry of pseudotyped VSV-Spike” value is given as “significant impairment in viral entry”. Moreover, in the data set with wild-type VSV-GFP, the “WT VSV infection (entry)” value is reported as “largely unaffected” and the “WT VSV plaque size” value is on record as “no effect on WT VSV”. Moreover, the “fusion of ACE2- and ACE2/TMPRSS2-expressing cells with spike-expressing HEK293T cells” value in [5] is recorded as “dose-dependent reduction in fusion”. In addition, the “effect on sACE2 unfolding by urea” value at recombinant sACE2 is “stabilizes sACE2”. Further, in data set [6], the “spike protein levels (immunoblotting)” value was “dramatic reduction in spike protein levels”, the “viral burden by TCID50 assay” value is “reduced” and the “viral mRNA levels (qPCR)” value is given as “significant reduction in viral mRNA levels”. For the same compound, in the data set with SARS-CoV-2, the “viral mRNA and infectious particles (TCID50)” value is on record as “reduction in viral mRNA as well as infectious particles”. For the same compound, the “viral RNA levels of VOCs” value in [7] is recorded as “significant reduction in output of the VOCs”. Moreover, in the data set on VSV-Spike (strain 2), the “reduction in pY705-Stat3 in the lungs” value was around 50%, the reduction of lethality is reported as 40%, the survival is given as 2 of 5 and the “survival of challenged mice” value was found to be 40%. Further, the “viral load in lungs by qRT-PCR” value in the data set with VSV-Spike (strain 2) is “significant reduction in viral load”. For the same compound, in [8], the survival is reported as 8 of 11 and the weight after infection entry is “lost less weight”. The “concentration up to which no overt toxicity” value in the data set on VeroE6 and VeroAT cells (African green monkey) is listed as “up to 100 μM”. The “inhibition of ACE2 enzymatic activity” value at Recombinant ACE2 is recorded as “does not involve inhibition of ACE2 enzymatic activity”. For the same compound, the effect on viability result in the data set with VeroE6-hTMPRSS2 cells is given as “no effect on viability at the antiviral dose tested”. The “effect on cell viability” value with A549-hACE2 cells is reported as “no effect on cell viability at the dose tested”. The tolerability result in data set [9] is reported as “well tolerated”. In addition, in data set [10], the “half-life (t1/2), first phase of biphasic elimination” value is on record as 7 h and the “half-life (t1/2), second phase of biphasic elimination” value is given as 42 h. In addition, in [11], the “oral doses that could result in embryotoxicity” value is above 30 mg/kg.

The record behind these values is paper PMC9075979 (Molecular Therapy, 2022).
